Patent US6737383B1, “Herbicidal oxadiazolidines” (priority 1999, dated 2004)

What was measured:
Settings in all cases: Preemergence
[1] = system: rape; assay: Test B pre/postemergence rape; type: in vivo, Brassica napus
How it was run: (§1)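 Response is a visual 0-to-10 score relative to untreated plants, where 0 means no effect and 10 means complete control, taken twelve to sixteen days after application. Treatments went onto soil at planting and onto foliage of 1- to 4-leaf plants, using a surfactant-containing non-phytotoxic solvent.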

[2] = system: morningglory; assay: Test B pre/postemergence morningglory; type: in vivo, Ipomoea hederacea
How it was run: as §1

[3] = system: velvetleaf; assay: Test B pre/postemergence velvetleaf; type: in vivo, Abutilon theophrasti
How it was run: as §1

[4] = system: wheat; assay: Test B pre/postemergence wheat; type: in vivo, Triticum aestivum
How it was run: as §1

[5] = system: crabgrass; assay: Test B pre/postemergence crabgrass; type: in vivo, Digitaria sanguinalis
How it was run: as §1

[6] = system: wild oat; assay: Test B pre/postemergence wild oat; type: in vivo, Avena fatua
How it was run: as §1

[7] = system: soybean; assay: Test B pre/postemergence soybean; type: in vivo, Glycine max
How it was run: as §1

[8] = system: corn; assay: Test B pre/postemergence corn; type: in vivo, Zea mays
How it was run: as §1

[9] = system: giant foxtail; assay: Test B pre/postemergence giant foxtail; type: in vivo, Setaria faberii
How it was run: as §1

[10] = system: purple nutsedge; assay: Test B pre/postemergence purple nutsedge; type: in vivo, Cyperus rotundus
How it was run: as §1

[11] = system: cocklebur; assay: Test B pre/postemergence cocklebur; type: in vivo, Xanthium strumarium
How it was run: as §1

[12] = system: bedstraw; assay: Test B pre/postemergence bedstraw; type: in vivo, Galium aparine
How it was run: as §1

[13] = system: surinam grass; assay: Test B pre/postemergence surinam grass; type: in vivo, Brachiaria decumbens
How it was run: as §1

[14] = system: sugar beet; assay: Test B pre/postemergence sugar beet; type: in vivo, Beta vulgaris
How it was run: as §1

[15] = system: pigweed; assay: Test B pre/postemergence pigweed; type: in vivo, Amaranthus retroflexus
How it was run: as §1

[16] = system: blackgrass; assay: Test B pre/postemergence blackgrass; type: in vivo, Alopecurus myosuroides
How it was run: as §1

[17] = Rate 125 g/ha, scale of 0 to 10 where 0 is no effect and 10 is complete control
[18] = Rate 250 g/ha, scale 0 (no effect) to 10 (complete control)
[19] = Rate 500 g/ha, scale 0 to 10 (0 no effect, 10 complete control)

CC(C)N(C(=O)n1oc(=O)n(CBr)c1=O)c1ccccc1 [Compound 755]
2: Giant foxtail plant response rating [9, 19]
0: Plant response rating, Rape [1, 17] | Rape plant response rating [1, 18] | Rape plant response rating ([1]; Rate 62 g/ha, scale 0 to 10) | Rape plant response rating [1, 19] | Plant response rating, Morningglory [2, 17] | Morningglory plant response rating [2, 18] | Morningglory plant response rating ([2]; Rate 62 g/ha, scale 0 to 10) | Morningglory plant response rating [2, 19] | Plant response rating, Velvetleaf [3, 17] | Velvetleaf plant response rating [3, 18] | Velvetleaf plant response rating ([3]; Rate 62 g/ha, scale 0 to 10) | Velvetleaf plant response rating [3, 19] | Plant response rating, Wheat [4, 17] | Wheat plant response rating [4, 18] | Wheat plant response rating ([4]; Rate 62 g/ha, scale 0 to 10) | Wheat plant response rating [4, 19] | Plant response rating, Crabgrass [5, 17] | Crabgrass plant response rating [5, 18] | Crabgrass plant response rating ([5]; Rate 62 g/ha, scale 0 to 10) | Crabgrass plant response rating [5, 19] | Plant response rating, Wild oats [6, 17] | Wild oats plant response rating [6, 18] | Wild oats plant response rating ([6]; Rate 62 g/ha, scale 0 to 10) | Wild oats plant response rating [6, 19] | Plant response rating, Soybean [7, 17] | Soybean plant response rating [7, 18] | Soybean plant response rating ([7]; Rate 62 g/ha, scale 0 to 10) | Soybean plant response rating [7, 19] | Plant response rating, Corn [8, 17] | Corn plant response rating [8, 18] | Corn plant response rating ([8]; Rate 62 g/ha, scale 0 to 10) | Corn plant response rating [8, 19] | Plant response rating, Giant foxtail [9, 17] | Giant foxtail plant response rating [9, 18] | Giant foxtail plant response rating ([9]; Rate 62 g/ha, scale 0 to 10) | Nutsedge plant response rating [10, 18] | Nutsedge plant response rating ([10]; Rate 62 g/ha, scale 0 to 10) | Nutsedge plant response rating [10, 19] | Plant response rating, Cocklebur [11, 17] | Cocklebur plant response rating [11, 18] | Cocklebur plant response rating ([11]; Rate 62 g/ha, scale 0 to 10) | Cocklebur plant response rating [11, 19] | Plant response rating, Bedstraw [12, 17] | Bedstraw plant response rating [12, 18] | Bedstraw plant response rating ([12]; Rate 62 g/ha, scale 0 to 10) | Bedstraw plant response rating [12, 19] | B. signalgrass plant response rating ([13]; Rate 62 g/ha, scale of 0 to 10 where 0 is no effect and 10 is complete control) | Plant response rating, B. signalgrass [13, 17] | B. signalgrass plant response rating [13, 18] | B. signalgrass plant response rating [13, 19] | Plant response rating, Sugarbeets [14, 17] | Sugarbeets plant response rating [14, 18] | Sugarbeets plant response rating ([14]; Rate 62 g/ha, scale 0 to 10) | Sugarbeets plant response rating [14, 19] | Plant response rating, Redroot pigweed [15, 17] | Redroot pigweed plant response rating [15, 18] | Redroot pigweed plant response rating ([15]; Rate 62 g/ha, scale 0 to 10) | Redroot pigweed plant response rating [15, 19] | Plant response rating, Blackgrass [16, 17] | Blackgrass plant response rating [16, 18] | Blackgrass plant response rating ([16]; Rate 62 g/ha, scale 0 to 10) | Blackgrass plant response rating [16, 19]
